Values joined by “and” are separate entries in the source; they are usually repeats but may differ in a detail not shown here. Equal entries are not always repeated. Where two headings read alike, the source gives them in different places. Where a SMILES comes first, the peptide text is derived from it.
Experiments:
[1] = Solution-gel (sol-gel) transition of each peptide; assay type: physicochemical
Procedure: In compositions, the influence of pH of 3 to 9, ionic strength of about 0 M to about 5 M salt concentration (for example, ZnCl2, NaCl etc.) via addition of any monovalent and/or divalent cation or temperature plays a critical role in preventing the self-assembly in formulation. In compositions, the pH maybe in the range of about 3 to 9. In some compositions, the amount of peptide is in a range of about 0.001% to 30% by weight and the temperature of the composition may be in a range of about 19° C. to 42° C.

ex vivo skin = assay: pH dependent peptide self-assembly within intact ex vivo skin (click histology); conditions: propargylglycine versions of the peptides, 0.6 mg/mL, topical, pH 4 to 9
Procedure: To aid in visualization of the effects of pH and salinity on peptide self-assembly within tissue, peptides were labeled via F-moc chemistry with propargylglycine. Biopsies (12-mm) of abdominal skin explants were isolated, maintained, as stated in example 4, and were treated topically with the propargylglycine labeled peptides ([…]), twice a day for 5 days. The propargylglycine labeled peptides included A6K, IEIK-13, KLD-12, RADA-16, IGVPAG, and VGVPAG.
To determine how pH and salinity influences peptide assembly in the skin, the propargylglycine labeled peptides were prepared at various pH or salinity pH 3 to 9 or containing a salt content of 0.1-3.0%, respectively. The skins were fixed, cryoprotected, cryosectioned (8 μm) and stored at −20° C. until Copper(I)-Catalyzed Alkyne-Azide Cycloaddition (CuAAC), or click chemistry, was performed to detect peptide assembly. Representative results are shown herein.
The sections were washed, mounted with Fluoromount-G plus DAPI, and were imaged using the Zeiss Axio Observer Z1 Fluorescence Motorized Microscope.
Click chemistry is a technique that uses two biologically inert functional groups, an alkyne and an azide, which form a triazole in the presence of Copper(I). The alkyne on the terminus of the peptide negligibly impacts the aspects of molecule that will impact the penetration of the peptide in tissue (i.e. molecular weight, log P, isoelectric point, and self-assembly) allowing for the peptide to penetrate based on its inherent properties. Once the alkyne-peptide is delivered to the tissue, the sample is fixed, and “stained” with an azido-fluorophore. […] This click histology protocol allows for the peptide of interest to be selectively detected via fluorescence microscopy in the presence of endogenous peptides and/or proteins. […]

[2] = tested on: pre-existing elastin fibers; assay: Concentration driven self-assembly in ex vivo skin treated topically (Elastin van Gieson stain); conditions: topical
Procedure: Self-assembly of biomolecules is dependent on a critical self-assembly concentration, where self-assembly biomolecules remain as monomers below a critical concentration and assemble above a specific concentration threshold.
Biopsies (12-mm) were treated topically with various concentrations of Ace-IGVAPG or Pal-VGVAPG (12.5, 25, 50 μg/mL) while being maintained in DMEM containing 10% FBS and 1% penicillin/streptomycin/amphotericin B. The skins were formalin fixed, paraffin embedded, sectioned at 8 μm and stain for elastin with the Elastin van Gieson stain.

existing elastin fibers = assay: Temperature dependent self-assembly of ELPs in decellularized ex vivo dermises (Elastin van Gieson staining, elastin fiber density); conditions: for Elastin fiber integrated density (FIG. 1B): 100 μg/mL, compared to PBS of the same temperature; for Elastin van Gieson staining signal (FIG. 1A): decellularized dermises submerged in 100 μg/mL peptide, five days, 4, 37 or 42° C., compared to PBS
Procedure: The generation of elastin fibers involves the self-assembly process of coacervation causing an accumulation of hydrophobic tropoelastin molecules prior to being cross-linked at lysines to generate mature elastin fibers. Elastin-like peptides (ELPs) undergo temperature-driven conformational change upon heat referred to as inverse temperature transition (ITT).
Following decellularization, the skins, here after referred to as dermises, were washed three times in PBS buffer (1X) for 2 hours each. The decellularized dermises were submerged in either PBS, 100 μg/mL Pal-VGVAPG, or Ace-IGVAPG, for five days, with daily solution changes. Three ex vivo dermises for each treatment were incubated at 4° C., 37° C., or 42° C. The decellularized dermises were fixed overnight in 10% formalin, paraffin embedded and sections at 8 μm. H&E and Elastin van Gieson staining were performed to confirm decellularization and to visualize elastin fibers, respectively. Elastin fiber density quantification was performed via thresholding the elastin fibers using NIH ImageJ software and measurements were recorded.
H&E staining confirmed that the tissues were successfully decellularized (data not shown). […] FIG. 1A indicates the representative images of Elastin van Gieson stained decellularized dermises which were incubated with Pal-VGVAPG and Ace-IGVAPG at different temperatures while concentration was kept constant (100 μg/mL). Elastin fibers are stained black at a scale bar of 50 μm.
Statistical significance of differences between means was performed using two-way ANOVA followed by Tukey's multiple comparisons test. Error bars represent standard error of the mean (SEM). All analyses were performed using Prism 8 software (GraphPad, San Diego, CA, U.S.A.).

ex vivo skin biopsies = assay: Skin elasticity (percent recovery) of ex vivo skin biopsies, TA.XT Plus Texture Analyzer; conditions: 25 μg/mL, 24 h topical treatment
Procedure: Following 24 hours, the TA.XT Plus Texture Analyzer was used to indent ex vivo skin with a 7-mm cylindrical probe with 40% strain and a withdrawal rate of 0.1 mm/s. The TA.XT Plus software generated a curve representative of the force (g) applied to the probe by the biopsy overtime (sec) and the areas under the curve for the duration of indentation and the withdrawal time of the probe were used to calculate the percent recovery.
A purely elastic material has a percent recovery of 100%. Since skin is viscoelastic, its recovery will never be equal to a pure elastic material, ex vivo skin, for example, has a percent recovery of 25% to 35%.

skin layers = assay: Triggers of self-assembly within the skin layers

For `C[C@H](N)C(=O)N[C@@H](C)C(=O)N[C@@H](C)C(=O)N[C@@H](C)C(=O)N[C@@H](C)C(=O)N[C@@H](C)C(=O)N[C@@H](CCCCN)C(N)=O` [AAAAAAK, A6K] (H-AAAAAAK-NH2), the “C0 for sol-gel transition by weight of the composition (w/w)” value (“C0 for sol-gel transition by weight” for short) [1] was “greater than 2%”.

In the case of `CC[C@H](C)[C@H](NC(C)=O)C(=O)NCC(=O)N[C@H](C(=O)N[C@H](C)C(=O)N1CCC[C@H]1C(=O)NCC(=O)O)C(C)C` [ACE-IGVAPG, Elastin hexapeptide] (HELM PEPTIDE1{[ac].I.G.V.[dA].P.G}$$$$V2.0), the “pH level at which peptide self-assembly was observed within the lower layers of the skin” value (ex vivo skin) is reported as 5 and 7, the “Elastin intensity (Elastin van Gieson stain, FIG. 2)” value (from here on “Elastin intensity”) ([2]; 25 μg/mL) is reported as “increase” and the “Elastin intensity” value ([2]; 50 μg/mL) is reported as “increase”. For the same compound, the “Elastin fiber integrated density (FIG. 1B)” value (existing elastin fibers; 42° C.) was “significant increase”, the “Elastin van Gieson staining signal (FIG. 1A)” value (existing elastin fibers) was “highest increase at 37 °C” and the “Greater recovery than non-treated samples” value (ex vivo skin biopsies) was “about 25%”. The “Percent recovery compared to non-treated controls (FIG. 6B)” value (ex vivo skin biopsies; p=0.0056) was “significantly higher”.

With `CC[C@H](C)[C@H](N)C(=O)N[C@@H](CCC(=O)O)C(=O)N[C@H](C(=O)N[C@@H](CCCCN)C(=O)N[C@H](C(=O)N[C@@H](CCC(=O)O)C(=O)N[C@H](C(=O)N[C@@H](CCCCN)C(=O)N[C@H](C(=O)N[C@@H](CCC(=O)O)C(=O)N[C@H](C(=O)N[C@@H](CCCCN)C(=O)N[C@H](C(N)=O)[C@@H](C)CC)[C@@H](C)CC)[C@@H](C)CC)[C@@H](C)CC)[C@@H](C)CC)[C@@H](C)CC` [IEIKIEIKIEIKI, IEK-13] the “Sol-gel transition pH” value [1] was 3, the Temperature trigger ([1]; sol-gel transition) was “YES” and the “C0 for sol-gel transition by weight” value ([1]; w/w of the composition) was 2%.

With `CC(C)C[C@H](NC(=O)[C@H](CC(=O)O)NC(=O)[C@H](CC(C)C)NC(=O)[C@H](CCCCN)NC(=O)[C@H](CC(C)C)NC(=O)[C@H](CC(=O)O)NC(=O)[C@H](CC(C)C)NC(=O)[C@H](CCCCN)NC(=O)[C@H](CC(C)C)NC(=O)[C@H](CC(=O)O)NC(=O)[C@H](CC(C)C)NC(=O)[C@@H](N)CCCCN)C(N)=O` [KLDLKLDLKLDL, KLD-12] (H-KLDLKLDLKLDL-NH2) the “pH level at which peptide self-assembly was observed within the lower layers of the skin” value (ex vivo skin) was 6, the “Sol-gel transition pH” value [1] was 5 and the “C0 for sol-gel transition by weight” value ([1]; w/w of the composition) was 2%.

For `CCCCCCCCCCCCCCCC(=O)NCC(=O)N[C@@H](Cc1cnc[nH]1)C(=O)O` [PAL-GH, Palmityl dipeptide] (HELM PEPTIDE1{[CCCCCCCCCCCCCCCC(=O)[*:2]].G.H}$$$$V2.0), the “C0 for sol-gel transition by weight” value [1] was 1.25%, the Ionic strength trigger [1] was “YES” and the “Sol-gel transition pH” value [1] was 5. The Temperature trigger [1] was “YES”.

For `CCCCCCCCCCCCCCCC(=O)N[C@@H](CCCCN)C(=O)N[C@H](C(=O)N[C@H](C(=O)N[C@@H](CCCCN)C(=O)N[C@@H](CO)C(=O)O)[C@@H](C)O)[C@@H](C)O` [PAL-KTTKS, Palmitoyl pentapeptide-4] (HELM PEPTIDE1{[CCCCCCCCCCCCCCCC(=O)[*:2]].K.T.T.K.S}$$$$V2.0), the “Concentration trigger of self-assembly within the skin layers” value (skin layers) was ≥ 0.5 % w/w, the “Temperature trigger of self-assembly within the skin layers” value (skin layers) was 37 °C and the “pH trigger of self-assembly within the skin layers” value (skin layers) was 5. The “Sol-gel transition pH” value [1] was 5, the Temperature trigger ([1]; sol-gel transition) was “YES” and the “C0 for sol-gel transition by weight” value ([1]; w/w of the composition) was 0.5%.

For `CCCCCCCCCCCCCCCC(=O)N[C@H](C(=O)NCC(=O)N[C@H](C(=O)N[C@@H](C)C(=O)N1CCC[C@H]1C(=O)NCC(=O)O)C(C)C)C(C)C` [PAL-VGVAPG, Palmitoyl hexapeptide] (HELM PEPTIDE1{[CCCCCCCCCCCCCCCC(=O)[*:2]].V.G.V.A.P.G}$$$$V2.0), the “Concentration trigger of self-assembly within the skin layers” value (skin layers) was > 0.01 % w/w, the “Temperature trigger of self-assembly within the skin layers” value (skin layers) was 37 °C and the “pH trigger of self-assembly within the skin layers” value (skin layers) was 7. For the same compound, the “pH level at which peptide self-assembly was observed within the lower layers of the skin” value (ex vivo skin) was 6 and 8, the “Elastin intensity” value ([2]; 12.5 μg/mL) was “increased” and the “Elastin intensity” value ([2]; 25 μg/mL) was “increased”. For the same compound, the “Elastin intensity” value ([2]; 50 μg/mL) was “increased”, the “Elastin fiber integrated density (FIG. 1B)” value (existing elastin fibers; 37° C.) was “significant increase” and the “Elastin fiber integrated density (FIG. 1B)” value (existing elastin fibers; 42° C.) was “significant increase”. For the same compound, the “Elastin van Gieson staining signal (FIG. 1A)” value (existing elastin fibers) was “increase in signal as temperature increased”, the “Sol-gel transition pH” value [1] was 7 and the Ionic strength trigger ([1]; sol-gel transition) was “YES”. For the same compound, the Temperature trigger ([1]; sol-gel transition) was “YES” and the “C0 for sol-gel transition by weight” value ([1]; w/w of the composition) was 1%.

With `C[C@H](NC(=O)[C@H](CC(=O)O)NC(=O)[C@H](C)NC(=O)[C@H](CCCNC(=N)N)NC(=O)[C@H](C)NC(=O)[C@H](CC(=O)O)NC(=O)[C@H](C)NC(=O)[C@H](CCCNC(=N)N)NC(=O)[C@H](C)NC(=O)[C@H](CC(=O)O)NC(=O)[C@H](C)NC(=O)[C@H](CCCNC(=N)N)NC(=O)[C@H](C)NC(=O)[C@H](CC(=O)O)NC(=O)[C@H](C)NC(=O)[C@@H](N)CCCNC(=N)N)C(=O)O` [RADARADARADARADA, RADA 16] the “Sol-gel transition pH” value [1] was 7, the Ionic strength trigger ([1]; sol-gel transition) was “YES” and the “C0 for sol-gel transition by weight” value ([1]; w/w of the composition) was 2%.

From patent US20240050329A1, “METHODS FOR COSMETIC SKIN REMODELING” (ELC Management LLC, priority 2019, published 2024)
